{
  "source": "patent US9776964B2",
  "about": "“Phenoxyethyl cyclic amine derivatives and their activity as EP4 receptor modulators” (Eli Lilly and Company, priority 2013, dated 2017)",
  "key": {"[1]": {"target": "T1, human EP3 (isoform VI) (Homo sapiens, UniProt P43115)", "T1 sequence (P43115 1-359)": "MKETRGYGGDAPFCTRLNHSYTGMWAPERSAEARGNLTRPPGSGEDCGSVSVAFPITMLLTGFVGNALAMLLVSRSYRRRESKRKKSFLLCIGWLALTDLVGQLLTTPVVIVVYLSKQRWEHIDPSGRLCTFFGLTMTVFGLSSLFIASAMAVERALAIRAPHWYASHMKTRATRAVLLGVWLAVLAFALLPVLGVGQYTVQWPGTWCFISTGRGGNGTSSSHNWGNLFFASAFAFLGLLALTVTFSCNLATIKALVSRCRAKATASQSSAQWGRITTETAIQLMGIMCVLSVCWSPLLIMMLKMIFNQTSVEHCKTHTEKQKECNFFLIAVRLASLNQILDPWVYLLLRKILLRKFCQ", "experiment": "In vitro binding to human EP3 ([3H]-PGE2 displacement, membranes)", "procedure": "(§1) hEP1 and hEP4 membranes are prepared from recombinant HEK293 cells stably expressing human EP1 (Genbank accession number AY275470) or EP4 (Genbank accession number AY429109) receptors. hEP2 and hEP3 membranes are prepared from HEK293 cells transiently transfected with EP2 (Genbank accession number AY275471) or EP3 (isoform VI: Genbank accession number AY429108) receptor plasmids. Frozen cell pellets are homogenized in homogenization buffer using a Teflon/glass homogenizer. Membrane protein is aliquoted and quick frozen on dry ice prior to storage at −80° C. […]\n(§2) Kd values for [3H]-PGE2 binding to each receptor are determined by saturation binding studies or homologous competition. […] Nonspecific binding is calculated by comparing binding in the presence and absence of 2 μM of PGE2. The membranes are harvested by filtration (TomTek harvester), washed 4 times with cold buffer (10 mM MES pH 6.0 with KOH, 10 mM MgCl2), dried in a 60° C. oven, and the radioactivity is quantified as counts per minute (CPM) using a TopCount detector. Percent specific binding is calculated as the percent of the binding in the absence of any inhibitor, corrected for binding in the presence of 2 uM of PGE2. […] Results are expressed as the geometric mean±standard deviation; n=number of independent determinations. The standard deviation is calculated by the delta method, being SDlog Ki×geometric mean×ln(10)."}, "[2]": {"target": "T2, human EP1 (Homo sapiens, UniProt P34995)", "T2 construct": "expressed in transfected cells", "T2 sequence (P34995 1-402)": "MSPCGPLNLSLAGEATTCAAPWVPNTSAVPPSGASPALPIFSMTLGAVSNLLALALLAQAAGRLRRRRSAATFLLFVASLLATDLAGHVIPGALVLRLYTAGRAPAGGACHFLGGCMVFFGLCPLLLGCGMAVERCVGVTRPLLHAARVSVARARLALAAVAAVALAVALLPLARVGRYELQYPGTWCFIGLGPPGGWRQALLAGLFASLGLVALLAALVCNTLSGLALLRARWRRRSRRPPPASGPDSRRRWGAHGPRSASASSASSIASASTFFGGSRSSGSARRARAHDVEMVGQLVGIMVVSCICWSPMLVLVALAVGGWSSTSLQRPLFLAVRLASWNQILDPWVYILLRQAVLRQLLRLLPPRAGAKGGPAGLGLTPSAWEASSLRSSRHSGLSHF", "experiment": "In vitro binding to human EP1 ([3H]-PGE2 displacement, membranes)", "details": "HEK293 membranes, n = 1, read-out: hEP1, Ki", "procedure": "as §1, §2"}, "[3]": {"target": "T3, human EP4 (Homo sapiens, UniProt P35408)", "T3 sequence (P35408 whole entry)": "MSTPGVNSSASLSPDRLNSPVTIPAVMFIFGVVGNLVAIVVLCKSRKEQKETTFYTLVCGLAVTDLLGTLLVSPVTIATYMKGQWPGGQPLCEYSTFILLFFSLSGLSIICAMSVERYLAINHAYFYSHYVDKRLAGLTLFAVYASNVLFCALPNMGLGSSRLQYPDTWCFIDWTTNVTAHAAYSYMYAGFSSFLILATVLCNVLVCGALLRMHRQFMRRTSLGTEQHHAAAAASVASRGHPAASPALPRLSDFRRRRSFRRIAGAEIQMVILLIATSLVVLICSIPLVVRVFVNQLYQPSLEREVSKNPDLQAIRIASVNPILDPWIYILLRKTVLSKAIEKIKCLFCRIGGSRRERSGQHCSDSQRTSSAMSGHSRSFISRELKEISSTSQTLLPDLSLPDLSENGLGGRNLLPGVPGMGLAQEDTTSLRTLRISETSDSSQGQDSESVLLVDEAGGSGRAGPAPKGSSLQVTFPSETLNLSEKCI", "experiment": "In vitro human EP4 functional antagonist activity (inhibition of PGE2-stimulated cAMP production, HTRF)", "type": "cell-based", "parameters": "expressed in transfected cells", "details": "HEK293 cells expressing human EP4, EC80 of PGE2 (0.188 nM); geometric mean ± SD, n=6; read-out: IC50 measured at human EP4 (PGE2-stimulated cAMP production)", "procedure": "Assays are conducted in recombinant HEK293 cells stably expressing human EP4 receptor. The cell lines are maintained by culturing in DMEM with high glucose and pyridoxine hydrochloride (Invitrogen) supplemented with 10% fetal bovine serum (FBS), 1 mM sodium pyruvate, 10 mM HEPES, […] and 2 mM L-glutamine. Confluent cultures are grown at 37° C. in an atmosphere containing 5% CO2. Cells are harvested using 2.5% Trypsin-EDTA, suspended in freeze media (FBS with 6% DMSO) at 10^7 cells/mL and aliquots are stored in liquid nitrogen. Just before assay, cells are thawed in DMEM, centrifuged, and resuspended in cAMP buffer.\nThe inhibition of PGE2-stimulated cAMP production by EP4 antagonists is measured using HTRF; (Cisbio catalog #62AM4PEB). […] The HTRF signal is detected using an EnVision® plate reader (Perkin-Elmer) to calculate the ratio of fluorescence at 665 nm to 620 nm. […] Results are expressed as the geometric mean±standard deviation; n=number of independent determinations. The standard deviation is calculated by the delta method, being SDlog Ki×geometric mean×ln(10)."}, "[4]": {"target": "T3, human EP4", "experiment": "In vitro binding to human EP4 ([3H]-PGE2 displacement, membranes)", "parameters": "expressed in transfected cells", "details": "HEK293 membranes, geometric mean ± SD, n = 6, read-out: hEP4, Ki", "procedure": "as §1, §2"}, "[5]": {"target": "T3, human EP4", "experiment": "In vitro antagonist activity in human whole blood (reversal of PGE2 inhibition of LPS-induced TNFα production)", "type": "cell-based", "parameters": "Blood is collected from normal volunteer donors into sodium heparin vacutainer tubes; from tissue; host or cells: human whole blood from volunteer donors", "details": "10 μg/mL LPS + 10 nM PGE2, 20-24 hours, geometric mean ± SD, n=6, read-out: IC50 in human blood TNFα induction assay", "excerpt": "The inhibitory effects of PGE2 on LPS-induced TNFα production from macrophages/monocytes are believed to be mediated by EP4 receptors (See Murase, A., et al., Life Sciences, 82:226-232 (2008)). The ability of the compound of Example 8 to reverse the inhibitory effect of PGE2 on LPS-induced TNFα production in human whole blood is an indicia of functional activity.\nBlood is collected from normal volunteer donors into sodium heparin vacutainer tubes. Donors have not taken NSAIDs or celecoxib within 48 hours or glucocorticoids within two weeks of the donation. All tubes/donor are pooled into 50 mL Falcon conical centrifuge tubes and 98 μL/well is distributed into 96-well tissue culture plates (Falcon 3072). […] TNFα levels in 2 μL plasma are quantified by a commercially available enzyme immunoassay (R&D Systems DY210), using Immulon 4 HBX plates (Thermo 3855) and 3,3′,5,5′ tetramethylbiphenyl-4,4′-diamine substrate (KPL 50-76-03). The plates are read at A450-A650 on a plate reader (Molecular Devices Versamax) using SOFTmaxPRO (v. 4.3.1) software. IC50s are calculated using Graphpad Prism (v. 4) nonlinear regression, sigmoidal dose response curve fitting. Results are expressed as the geometric mean±standard deviation; n=number of independent determinations The standard deviation is calculated by the delta method, being SDlog Ki×geometric mean×ln(10)."}, "[6]": {"target": "T4, human EP2 (Homo sapiens, UniProt P43116)", "T4 construct": "expressed in transfected cells; host or cells: HEK293 (transient)", "T4 sequence (P43116 whole entry)": "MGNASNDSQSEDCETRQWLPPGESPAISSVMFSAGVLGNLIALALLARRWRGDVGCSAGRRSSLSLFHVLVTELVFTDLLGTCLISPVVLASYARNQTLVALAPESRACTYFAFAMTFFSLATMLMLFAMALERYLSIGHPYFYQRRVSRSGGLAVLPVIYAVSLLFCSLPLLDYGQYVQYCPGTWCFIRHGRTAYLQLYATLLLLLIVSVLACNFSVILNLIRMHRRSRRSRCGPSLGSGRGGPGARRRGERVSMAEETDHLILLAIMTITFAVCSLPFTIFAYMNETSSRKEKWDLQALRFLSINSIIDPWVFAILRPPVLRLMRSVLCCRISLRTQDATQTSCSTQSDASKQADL", "experiment": "In vitro binding to human EP2 ([3H]-PGE2 displacement, membranes)", "details": "HEK293 membranes, n = 1, read-out: hEP2, Ki", "procedure": "as §1, §2"}},
  "note": "Structures can show the parent of a compound that is named as a salt.",
  "data": [
    {"molecule": "C[C@H](NC(=O)[C@H]1CC(F)(F)CCN1CCOc1ccccc1)c1ccc(C(=O)O)cc1", "note": "[Example 8, 4-((1S)-1-(((2R)-1-(2-phenoxyethyl)-4,4-difluoropiperidin-2-carbonyl)amino)ethyl)benzoic acid hydrochloride]", "values": [
      {"measurement": "Ki", "setting": "[1]", "result": "> 14800", "unit": "nM"},
      {"measurement": "Ki", "setting": "[2]", "result": "> 12500", "unit": "nM"},
      {"measurement": "IC50", "setting": "[3]", "result": "1.76 ± 1.51", "unit": "nM"},
      {"measurement": "Ki", "setting": "[4]", "result": "3.68 ± 3.32", "unit": "nM"},
      {"measurement": "IC50", "setting": "[5]", "result": "78.2 ± 61", "unit": "nM"},
      {"measurement": "Ki", "setting": "[6]", "result": 956, "unit": "nM"}
    ]}
  ]
}
